Numbers after ± are expanded uncertainties.

For data set [1] the following is noted: Crystal; DTA.
A short description of data set [2]: Molar enthalpy of transition or fusion. Conditions: Crystal; DSC.

On to `CCN(C(=O)N(CC)c1ccccc1)c1ccccc1` [1,3-diethyl-1,3-diphenylurea], for which the Normal melting temperature in data set [1] was found to be 71.87 ± 0.41 °C. Also, the “Molar enthalpy of transition or fusion” value in data set [2] came to 8.02 ± 0.454 kcal/mol.

Consider `O=[N+]([O-])c1ccccc1Nc1ccccc1` [2-nitrodiphenylamine], for which the Normal melting temperature in data set [1] worked out at 74.79 ± 0.41 °C. Also, in data set [2], the “Molar enthalpy of transition or fusion” value was found to be 6.25 ± 0.454 kcal/mol.

As to `CCN(N=O)c1ccc([N+](=O)[O-])cc1` [N-nitroso-N-ethyl-4-nitroaniline], the Normal melting temperature in data set [1] came out at 118.60 ± 0.41 °C. In addition, in data set [2], the “Molar enthalpy of transition or fusion” value came out at 7.45 ± 0.454 kcal/mol.

Take `O=[N+]([O-])c1ccccc1Nc1ccccc1[N+](=O)[O-]` [bis(2-nitrophenyl)amine]: the Normal melting temperature in data set [1] was determined as 172.30 ± 0.41 °C. Besides, the “Molar enthalpy of transition or fusion” value in data set [2] amounted to 4.39 ± 0.454 kcal/mol.

As to `c1ccc(Nc2ccccc2)cc1` [diphenylamine], the Normal melting temperature in data set [1] came to 53.50 ± 0.41 °C. The “Molar enthalpy of transition or fusion” value in data set [2] amounted to 4.7 ± 0.454 kcal/mol.

For the origin of these results see the NIST ThermoML archive (doi:10.1007/s10765-013-1404-4).
